Laboratory results: the supplement of paper PMC10307832

How the values were obtained:
Assay in all cases: relative viability (nuclei count vs DMSO), 5 days (fraction); higher = more cells survive
[1] = compound: COc1cc2nc(N3CCCN(C)CC3)nc(NC3CCN(Cc4ccccc4)CC3)c2cc1OC + CC(=O)c1c(C)c2cnc(Nc3ccc(N4CCNCC4)cn3)nc2n(C2CCCC2)c1=O [Palbociclib] (partner 0.5 µM)
How it was run: (§1)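 Lung cancer cell lines in 1536-well plates were dosed by pin tool the day after seeding, either with one drug alone or with a fixed anchor-drug dose plus five library-drug doses (not always all listed) in √10 steps. After 5 days, cells were fixed and their nuclei stained in one step (final 0.05% Triton X-100, 1% formaldehyde, 1 ug/ml Hoechst), then counted on 4× images. Relative viability is the nuclei count in treated wells divided by that in vehicle wells. Values are medians of duplicate plates.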

AZD6482 + Decitabine = compound: Cc1cc([C@@H](C)Nc2ccccc2C(=O)O)c2nc(N3CCOCC3)cc(=O)n2c1 [AZD6482] + Nc1ncn([C@H]2C[C@H](O)[C@@H](CO)O2)c(=O)n1 [Decitabine] (partner 2 µM)
How it was run: as §1

[2] = compound: COc1cc2nc(N3CCCN(C)CC3)nc(NC3CCN(Cc4ccccc4)CC3)c2cc1OC + NC(=O)Nc1cc(-c2cccc(F)c2)sc1C(=O)N[C@H]1CCCNC1 [AZD7762] (partner 0.2 µM)
How it was run: as §1

AZD6482 + Crizotinib = compound: Cc1cc([C@@H](C)Nc2ccccc2C(=O)O)c2nc(N3CCOCC3)cc(=O)n2c1 [AZD6482] + C[C@@H](Oc1cc(-c2cnn(C3CCNCC3)c2)cnc1N)c1c(Cl)ccc(F)c1Cl [Crizotinib] (partner 1 µM)
How it was run: as §1

Cell Line | relative viability ([1]; first compound 0.2 µM) | relative viability ([1]; first compound 0.6325 µM) | relative viability ([1]; first compound 2 µM) | relative viability ([1]; first compound 6.325 µM) | relative viability (AZD6482 + Decitabine; first compound 0.08 µM) | relative viability (AZD6482 + Decitabine; first compound 0.253 µM) | relative viability (AZD6482 + Decitabine; first compound 0.8 µM) | relative viability (AZD6482 + Decitabine; first compound 2.53 µM) | relative viability (AZD6482 + Decitabine; first compound 8 µM) | relative viability ([2]; first compound 0.2 µM) | relative viability ([2]; first compound 0.6325 µM) | relative viability ([2]; first compound 2 µM) | relative viability ([2]; first compound 6.325 µM) | relative viability (AZD6482 + Crizotinib; first compound 0.08 µM) | relative viability (AZD6482 + Crizotinib; first compound 0.253 µM) | relative viability (AZD6482 + Crizotinib; first compound 0.8 µM) | relative viability (AZD6482 + Crizotinib; first compound 2.53 µM) | relative viability (AZD6482 + Crizotinib; first compound 8 µM)
NCI-H2342 | 0.521 | 0.58 | 0.549 | 0.527 | 0.636 | 0.643 | 0.736 | 0.568 | 0.587 | 0.472 | 0.748 | 0.652 | 0.497 | – | – | – | – | –
HCC-15 | 0.741 | 0.802 | 0.83 | 0.69 | 0.648 | 0.614 | 0.571 | 0.488 | 0.556 | 1.28 | 1.2 | 1.15 | 1.34 | 0.755 | 0.729 | 0.763 | 0.699 | 0.869
A-427 | 0.533 | 0.503 | 0.521 | 0.485 | 0.479 | 0.53 | 0.547 | 0.512 | 0.483 | 0.785 | 0.681 | 0.756 | 0.775 | 0.747 | 0.858 | 0.788 | 0.732 | 0.962
NCI-H2228 | 0.63 | 0.808 | 0.835 | 0.509 | – | – | – | – | – | – | – | – | – | 0.368 | 0.46 | 0.308 | 0.254 | 0.275
NCI-H1734 | 0.375 | 0.367 | 0.292 | 0.38 | 0.508 | 0.476 | 0.463 | 0.407 | 0.435 | 0.551 | 0.505 | 0.502 | 0.724 | 0.627 | 0.733 | 0.622 | 0.47 | 0.471
PC-14 | 0.536 | 0.477 | 0.446 | 0.0369 | 0.225 | 0.174 | 0.273 | 0.315 | 0.271 | 0.343 | 0.382 | 0.357 | 0.257 | 0.826 | 0.896 | 0.904 | 0.783 | 0.876
NCI-H1915 | 0.527 | 0.504 | 0.607 | 0.461 | 0.278 | 0.255 | 0.263 | 0.247 | 0.23 | 0.698 | 0.586 | 0.72 | 0.764 | 0.845 | 0.8 | 0.935 | 0.838 | 0.863
NCI-H1666 | 0.644 | 0.633 | 0.648 | 0.633 | 0.72 | 0.687 | 0.715 | 0.645 | 0.642 | 0.901 | 0.809 | 0.76 | 0.746 | 0.84 | 1.11 | 0.823 | 0.712 | 0.989
HCC-366 | 0.373 | 0.404 | 0.396 | 0.409 | 0.309 | 0.302 | 0.313 | 0.304 | 0.345 | 0.232 | 0.203 | 0.272 | 0.258 | 0.304 | 0.447 | 0.395 | 0.453 | 0.472
SK-MES-1 | 0.319 | 0.304 | 0.295 | 0.106 | 0.331 | 0.279 | 0.396 | 0.28 | 0.275 | – | – | – | – | 0.854 | 0.838 | 0.86 | 0.419 | 0.439
SW 1573 | 0.365 | 0.417 | 0.377 | 0.196 | 0.545 | 0.449 | 0.434 | 0.332 | 0.454 | – | – | – | – | 0.781 | 0.696 | 0.733 | 0.548 | 0.466
NCI-H661 | 0.417 | 0.429 | 0.426 | 0.387 | 0.557 | 0.569 | 0.571 | 0.498 | 0.422 | – | – | – | – | – | 1.03 | 1.02 | – | 0.971
PC-3 [JPC-3] | 0.542 | 0.591 | 0.578 | 0.468 | 0.775 | 0.827 | 0.773 | 0.714 | 0.751 | 0.692 | 1.06 | 0.874 | 0.685 | 0.926 | 0.988 | 0.952 | 0.862 | 1.02
Calu-6 | – | – | – | – | – | – | – | – | – | – | – | – | – | 0.701 | 0.741 | 0.796 | 0.639 | 0.782
LC-2-ad | 0.509 | 0.533 | 0.444 | 0.52 | 0.799 | 0.71 | 0.811 | 0.661 | 0.635 | 0.827 | 0.908 | 0.941 | 0.91 | 0.434 | – | 0.476 | 0.404 | 0.367
CAL-12T | 0.4 | 0.55 | 0.482 | 0.46 | – | – | – | – | – | 0.725 | 0.615 | 0.614 | 0.595 | 0.572 | 0.662 | 0.853 | 0.455 | 0.794
RERF-LC-KJ | 0.982 | 1.11 | 1.13 | 0.909 | 0.722 | 0.78 | 0.601 | 0.592 | 0.665 | 1.03 | 0.932 | 0.999 | 0.888 | 0.745 | 0.776 | 0.832 | 0.818 | 0.676
NCI-H1650 | 0.243 | 0.448 | 0.328 | 0.287 | 0.381 | 0.571 | 0.544 | 0.584 | 0.474 | – | – | – | – | 0.907 | – | 0.958 | 0.662 | 0.653
BEN | 0.437 | 0.471 | 0.473 | 0.476 | 0.621 | 0.533 | 0.767 | 0.509 | 0.581 | 0.8 | 0.82 | 0.752 | 0.736 | 0.876 | 0.769 | 0.913 | 0.655 | 0.827
EMC-BAC-2 | 0.525 | 0.472 | 0.517 | 0.546 | 0.938 | 0.956 | 0.994 | 0.778 | 0.908 | 1.06 | 1.16 | 1.07 | 1.29 | 0.66 | 0.717 | 0.858 | 0.617 | 0.653
